Results reported in article PMC12104086, “Identification of a multiple DAMP scavenger mimicking the DAMP-binding site of TLR4 to ameliorate lethal sepsis” (Frontiers in Immunology, 2025).

How the values were obtained:
[1] = test system: C57BL/6 mice, cecal ligation and puncture (CLP); experiment: CLP lethal sepsis model, 20 h: plasma DAMPs, serum cytokines and organ injury markers; format: in vivo, mouse; settings: 80 nmol/kg i.p. once at abdominal closure, 20 h after CLP; n = 7–9; scrambled: vs sham; OP18: vs scrambled peptide; p < 0.05
Protocol: Polymicrobial sepsis was induced in mice by cecal ligation and puncture (CLP) ([7], [23]). Mice were anesthetized with isoflurane, and a midline abdominal incision was performed. The cecum was ligated with a 4–0 silk suture 1 cm proximal from its distal extremity and puncture using a 22-G needle was made twice (through and through) for a 20-h study and once for a survival study. A control (scrambled peptide) or OP18, both with 80 nmol/kg body weight (BW), was injected intraperitoneally (i.p.) before the closure. Sham animals were subjected to a laparotomy without CLP. Following the surgery, 1 mL of saline was injected subcutaneously to avoid surgery-induced dehydration, and 0.05 mg/kg buprenorphine was injected subcutaneously as an analgesic; 20 h after the surgery, the blood and lungs were collected. In the 20-h model, antibiotics were not administered, whereas in the survival study, 0.5 mg/kg BW of Imipenem was injected subcutaneously.
Blood was collected, centrifuged at 1,000 × g for 10 min, and plasma or serum was separated. Plasma levels of eCIRP, HMGB1, and histone H3 were analyzed by ELISA kits according to the manufacturer’s instruction (eCIRP from American Research Products, Inc., Waltham, MA, USA, HMGB1 from Invitrogen, Thermo Fisher Scientific, and histone H3 from LS Bio, Shirley, MA, USA). Serum levels of IL-6 and TNF-α were analyzed by ELISA kits (IL-6 and TNF-α both from BD Biosciences, Franklin Lakes, NJ, USA) according to the manufacturer’s instruction. Serum levels of aspartate aminotransferase (AST), lactate dehydrogenase (LDH), blood urea nitrogen (BUN), and creatinine (Cre) were measured by specific colorimetric enzymatic assays (Pointe Scientific, Canton, MI). Absorbance was measured on a Synergy Neo2 (Agilent Technologies) according to the manufacturer’s instructions.
Figure 4 OP18 alleviates systemic inflammation and tissue injury in sepsis. Intraperitoneal injection of 80 nmol/kg scrambled peptide or 80 nmol/kg OP18 was performed on CLP mice before skin closure. Blood and lungs were collected 20 h after CLP. (A–C) Plasma levels of (A) eCIRP, (B) HMGB1, and (C) histone H3. (D–I) Serum levels of (D) IL-6, (E) TNF-α, (F) AST, (G) LDH, (H) BUN, and (I) Cre. Data are expressed as mean ± SEM (n = 7–9 samples/group) and were compared using one-way ANOVA followed by Tukey’s multiple comparison test. ^* p < 0.05 versus sham; ^# p < 0.05 versus scrambled peptide. Experiments were performed three times, and all data were used for analysis.

RAW264.7 cells = experiment: MTS cytotoxicity assay; format: cell-based, mouse; settings: 20 h, n=3-4, versus PBS
Protocol: (§1) Supplemental Figure 6: Toxicity Assay of OP18
(§2) Note: (A) RAW264.7 cells were treated with OP18 for 20 h and MTS assay was performed using a CellTiter 96® AQueous Non-Radioactive Cell Proliferation Assay kit (Promega, Madison, Wisconsin) according to the manufacturer’s instructions. (B) Mouse peritoneal macrophages were treated with OP18 for 20 h and CyQUANT™ LDH Cytotoxicity Assay (Thermo Fisher Scientific, Waltham, MA) was performed according to the manufacturer’s instruction s. Data are expressed as mean ± SEM (n=3-4 samples/group) and compared by one -way ANOVA and a Tukey’s multiple comparison test. ns: not significant, *p < 0.05 versus PBS (C, D) Sham mice were treated with OP18 for 20h and blood were collected. (C) IL-6 and (D) TNFα were […]
(§3) Data are expressed as mean ± SEM and compared by unpaired two -tailed Student’s t-test. not significant (ns) vs sham.
(§4) (1 picture or pasted object on this page, not shown here)

[2] = test system: mouse peritoneal macrophages; experiment: LDH cytotoxicity assay; format: cell-based; settings: 20 h, n=3-4, versus PBS
Protocol: as §1, §2, §3, §4

C57BL/6 mice (sham) = experiment: Cytokine production in sham mice treated with OP18; format: in vivo, mouse; settings: OP18-treated sham versus sham, 20 h, blood, ELISA
Protocol: as §1, §2, §3, §4

Row | Compound | plasma HMGB1 level [1] | plasma eCIRP level [1] | plasma histone H3 level [1] | serum AST [1] | serum BUN [1] | serum Cre [1] | serum IL-6 [1] | serum LDH [1] | serum TNF-α [1] | cytotoxicity on macrophages (MTS) (RAW264.7 cells) | cytotoxicity on macrophages (LDH) [2] | IL-6 in sham mice (C57BL/6 mice (sham)) | TNFα in sham mice (C57BL/6 mice (sham))
1 | NRKINMGSFTQCSNNLGD [scrambled peptide, scrambled control peptide for OP18 ([…])] | significantly elevated | significantly elevated | significantly elevated | significantly elevated | significantly elevated | significantly elevated | significantly elevated | significantly elevated | significantly elevated | – | – | – | –
2 | CC[C@H](C)[C@H](NC(=O)[C@H](CC(N)=O)NC(=O)[C@H](CO)NC(=O)[C@H](CO)NC(=O)[C@H](CC(N)=O)NC(=O)[C@H](Cc1ccccc1)NC(=O)[C@H](CC(N)=O)NC(=O)CN)C(=O)N[C@@H](CCSC)C(=O)N[C@@H](CCCCN)C(=O)N[C@H](C(=O)N[C@@H](CS)C(=O)N[C@@H](CC(C)C)C(=O)N[C@@H](CCC(N)=O)C(=O)N[C@@H](CC(N)=O)C(=O)N[C@@H](CCCNC(=N)N)C(=O)NCC(=O)N[C@@H](CC(=O)O)C(=O)O)[C@@H](C)O [OP18] | – | – | – | – | – | – | – | – | – | did not observe any cytotoxicity | did not observe any cytotoxicity | No significant difference | No significant difference
